The assay relates to Influenza A virus. Kind of assay: Antiviral activity against Influenza A virus A/PR/8/34 (H1N1) infected in MDCK cells assessed as reduction in virus-induced cytopathic effect incubated for 5 days by CCK8 based microplate spectrophotometric analysis. The note with it: 120 h; for EC90: time 5 day. Format: functional, organism-based.

pEC50: −log10 of the molar value.

Consider `CN1C(=O)c2c(O)c(=O)ccn2N2[C@H](c3ccccc3F)c3cc(F)c(F)cc3OCC[C@@H]12`, for which the negative logarithm of the EC50 (pEC50) was 7.96 and the concentration for an effect of 90% (EC90) was 16 nM.

Regarding `CN1C(=O)c2c(O)c(=O)ccn2N2[C@H](c3ccccc3Br)c3cc(F)c(F)cc3OCC[C@@H]12` (racemic), the pEC50 is 7.96 and the EC90 was 18 nM.

Consider `CN1C(=O)c2c(O)c(=O)ccn2N2[C@H](c3ccccc3)c3ccccc3OCC[C@@H]12`, for which the negative logarithm of the EC50 (pEC50) is 7.85 and the concentration for an effect of 90% (EC90) was determined as 26 nM.

In the case of `CN1C(=O)c2c(O)c(=O)ccn2N2[C@@H](c3ccccc3)c3ccccc3OCC[C@H]12`, the pEC50 is less than 6.30 and the EC90 was greater than 500 nM.

On to `CN1C(=O)c2c(O)c(=O)ccn2N2[C@H](c3ccccc3)c3ccc(F)c(F)c3OCC[C@@H]12` (racemic), for which the negative logarithm of the EC50 (pEC50) is 7.30 and the EC90 is 93 nM.

`CC(C)N1C(=O)c2c(O)c(=O)ccn2N2[C@H](c3ccccc3)c3ccccc3OCC[C@@H]12` (racemic): the pEC50 is 7.28 and the 90% effect concentration (EC90) is 105 nM.

Turning to `CN1C(=O)c2c(O)c(=O)ccn2N2[C@H](c3ccc(F)c(F)c3)c3cc(F)c(F)cc3OCC[C@@H]12`, the pEC50 is 7.60 and the EC90 turned out to be 42 nM.

Consider `CN1C(=O)c2c(O)c(=O)ccn2N2[C@H](c3ccccc3C#N)c3cc(F)c(F)cc3OCC[C@@H]12` (racemic), for which the negative-log EC50 (pEC50) was less than 6.30 and the EC90 is greater than 500 nM.

Regarding `CN1C(=O)c2c(O)c(=O)ccn2N2[C@H](c3ccc(F)cc3)c3cc(F)c(F)cc3OCC[C@@H]12`, the negative-log EC50 (pEC50) is 7.85 and the 90% effect concentration (EC90) is 24 nM.

For the compound `CN1C(=O)c2c(O)c(=O)ccn2N2C(c3ccccc3)c3ccccc3OCCC12` (racemic), the pEC50 was less than 6.00 and the EC90 was greater than 1000 nM.

`O=C1c2c(O)c(=O)ccn2N2[C@H](c3ccccc3)c3ccccc3OCC[C@H]2N1C1CCC1` (racemic): the negative-log EC50 (pEC50) is 7.19 and the EC90 is 120 nM.

For the origin of these results see ChEMBL document CHEMBL5528039, “Discovery of a Macrocyclic Influenza Cap-Dependent Endonuclease Inhibitor” (J Med Chem, 2024).
